According to the NIST ThermoML archive (doi:10.1016/j.jct.2015.06.009):

Assay: xn = mol fraction of the nth substance listed
Settings: 101 kPa, Liquid; for speed of sound: Frequency=3 MHz, Sing-around technique in a fixed-path interferometer; for mass density: Vibrating tube method

COC(C)(C)C [2-methoxy-2-methylpropane] + CCCCO
Settings	mass density, 298.15 K [kg/m3]	mass density, 308.15 K [kg/m3]	mass density, 318.15 K [kg/m3]	mass density, 328.15 K [kg/m3]	speed of sound, 298.15 K [m/s]	speed of sound, 308.15 K [m/s]	speed of sound, 318.15 K [m/s]	speed of sound, 328.15 K [m/s]
x1 = 0.03132	803.61	795.86	788.07	780.19	1233.9	1200	1166.3	1132.8
x1 = 0.06569	801.27	793.42	785.54	777.56	1227	1192.7	1158.4	1124.4
x1 = 0.1315	796.77	788.76	780.66	772.49	1213.6	1178.4	1143	1108.2
x1 = 0.193	792.46	784.25	775.99	767.64	1200.7	1164.5	1128.5	1092.7
x1 = 0.2647	787.54	779.11	770.65	762.09	1185.7	1148.6	1111.7	1075
x1 = 0.3401	782.26	773.61	764.93	756.13	1170.3	1131.9	1094	1056.4
x1 = 0.3916	778.65	769.83	761.01	752.07	1159.3	1120.5	1082	1043.8
x1 = 0.4652	773.54	764.48	755.43	746.28	1144.3	1104.6	1065.2	1026.3
x1 = 0.5451	768.04	758.63	749.33	739.91	1128.3	1087.4	1047.2	1007
x1 = 0.6001	764.05	754.64	745.19	735.66	1117.3	1076.1	1034.9	995.48
x1 = 0.6708	759.06	749.44	739.77	729.95	1103.5	1061.5	1019.5	978.48
x1 = 0.7347	754.56	744.74	734.85	724.9	1091.3	1048.4	1005.7	963.43
x1 = 0.7953	750.27	740.28	730.2	–	1079.5	1036	992.74	–
x1 = 0.8755	744.44	734.2	723.89	713.5	1063.6	1019	974.75	932.29
x1 = 0.9367	739.95	729.44	719.05	708.44	1050.6	1005.4	960.39	917.28
x1 = 1	735.22	724.64	714.01	703.38	1036.4	990.57	944.94	–
